According to patent US20220008359A1, “COMBINATION ANTI-CANCER PRODUCTS AND METHODS” (priority 2020, published 2022):
Marks after values point to notes of the source that are not given here.

Key:
[1] = test system: CD8+ T cells; assay: Viability and effects on CD8+ T cells after 72 hours of exposure; type: cell-based
Method: (§1) In vitro assays designed to assess the viability and effects of GZ17-6.02, GZ17-6.02.02, its metabolites as single agents, and the metabolites in combination effects of CD8+ T cells and CD56+ natural killer cells after 72 hours of exposure. Test agents used included 6.02 (77% Isovanillin+13% Harmine+10% Curcumin), 6.02.02 (77% Isovanillin+13% Harmine+8.5% Curcumin sulfate tetrabutylammonium salt+1.5% Curcumin β-D-glucuronide), Curcumin metabolites combination (85% Curcumin sulfate tetrabutylammonium salt+15% Curcumin β-D-glucuronide), Curcumin metabolites single agents (single agent Curcumin sulfate tetrabutylammonium salt, or single agent Curcumin 3-D-glucuronide).

[2] = test system: CD56+ natural killer cells; assay: Viability and effects on CD56+ natural killer cells after 72 hours of exposure; type: cell-based
Method: as §1

[3] = test system: H1975 cells (wild type sensitive); assay: In-cell immunostaining of protein expression and phosphorylation, H1975 wild type cells; type: cell-based, human; settings: 1975 WT; 6 h; GZ17-6.02 2 mM final curcumin, osimertinib 100 nM; vehicle 100%
Method: (§2) […] Cells were fixed in place 6 hours after treatment and immunostaining of single cells performed to determine the levels of each protein/phosphor-protein (n=3+/−SD). * p<0.05 less than vehicle control; # p<0.05 greater than vehicle control.
(§3) Assessments of protein expression and protein phosphorylation. Multi-channel fluorescence HCS microscopes perform true in-cell western blotting. Three independent cultures derived from three thawed vials of cells of a tumor were sub-cultured into individual 96-well plates. Twenty-four hours after plating, the cells are transfected with a control plasmid or a control siRNA, or with an empty vector plasmid or with plasmids to express various proteins. After another 24 hours, the cells are ready for drug exposure(s). At various time-points after the initiation of drug exposure, cells are fixed in place using paraformaldehyde and using Triton X100 for permeabilization. Standard immunofluorescent blocking procedures are employed, followed by incubation of different wells with a variety of validated primary antibodies and subsequently validated fluorescent-tagged secondary antibodies are added to each well. The microscope determines the background fluorescence in the well and in parallel randomly determines the mean fluorescent intensity of 100 cells per well.

[4] = test system: afatinib-resistant (AR) H1975 cells; assay: In-cell immunostaining of protein expression and phosphorylation, afatinib-resistant H1975 cells; type: cell-based, human; settings: 1975 AR; 6 h; GZ17-6.02 2 mM final curcumin, osimertinib 100 nM; vehicle 100%
Method: as §2
Generation of erlotinib, afatinib and osimertinib-resistant cells. Cells were incubated in vitro with increasing concentrations of vehicle control or erlotinib or osimertinib until after ˜6 weeks the HCC827 and H1975 and H1650 cells grew with similar kinetics to sensitive cells in either erlotinib ([…]) or osimertinib ([…]), respectively. Afatinib-resistant cells were created in vivo by repeated high dosing until tumors disappeared and then regrew, as previously described.
as §3

[5] = test system: H1650 cells (wild type); assay: In-cell immunostaining of protein expression and phosphorylation, H1650 wild type cells; type: cell-based, human; settings: 1650 WT; 6 h; GZ17-6.02 2 mM final curcumin, osimertinib 100 nM; vehicle 100%
Method: as §3

COc1cc(/C=C/C(=O)CC(=O)/C=C/c2ccc(O[C@@H]3O[C@H](C(=O)O)[C@@H](O)[C@H](O)[C@H]3O)c(OC)c2)ccc1O [Curcumin B-D-Glucuronide, Curcumin β-D-glucuronide]
95.28 % of control: CD56 + NK Cells % of control ([2]; 30 μM)
118.58 % of control: CD8 + T Cells % of control ([1]; 3 μM)
93.81 % of control: CD56 + NK Cells % of control ([2]; 3 μM)
114.54 % of control: CD8 + T Cells % of control ([1]; 0.3 μM)
100.22 % of control: CD56 + NK Cells % of control ([2]; 0.3 μM)
110.23 % of control: CD8 + T Cells % of control ([1]; 30 μM)
98.08 % of control: CD56 + NK Cells % of control ([2]; 0.03 μM)
124.35 % of control: CD8 + T Cells % of control ([1]; 0.03 μM)

C=CC(=O)Nc1cc(Nc2nccc(-c3cn(C)c4ccccc34)n2)c(OC)cc1N(C)CCN(C)C [OSI]
85* %: FLIP-s [3]
65* %: P-ULK1 S757 [4]
102%: CD95 [3] | P-B4 [3] | P-SRC Y527 [3] | CHOP [4] | ERBB2 [4] | P-AMPKα T172 [4] | FLIP-s [5] | P-YAP S127 [5] | P-β-catenin [5]
76* %: P-B1 [4]
86* %: P-AKT T308 [4] | P-JAK2 [5]
91%: P-JNK1/2 [5]
79* %: FLIP-s [4]
121# %: P-ATG13 S318 [4]
82* %: P-MEK1/2 [4] | P-ERK1/2 [5]
71* %: P-mTOR S2481 [4]
104%: PP1 [3] | FAS-L [5] | JNK1/2 [5] | ODC [5] | P-PERK T980 [5]
106%: ATG5 [5] | CHOP [5] | PDGFRβ [5]
114%: P-eIF2α S51 [5]
96%: HDAC3 [3] | HDAC11 [3] | MHCA [3] | P-B3 [5] | P-B4 [5] | P-mTOR S2448 [5]
88%: P-STAT5 Y694 [3]
97%: HDAC1 [3] | PD-L2 [3] | P-B4 [4] | P-B2 [5] | P-MEK1/2 [5] | PD-L1 [5] | PD-L2 [5]
111%: ATG5 [3] | P-β-catenin [3] | P-PERK T980 [4] | GRP78 [5]
81* %: P-AKT T308 [3] | P-ULK1 S757 [5]
83* %: P-JAK2 [3] | P-MEK1/2 [3] | P-NFκB S536 [5] | P-SRC Y416 [5]
70* %: P-ERK1/2 [3]
73* %: P-B1 [3]
114# %: P-TAZ S89 [3]
101%: ERBB3 [3] | FAS-L [3] | JNK1/2 [3] | P-AMPKα T172 [3] | P-B2 [3] | c-MET [3] | ERBB3 [4] | P-ATM S1980 [4] | P-B2 [4] | HDAC4 [5] | HDAC8 [5] | NOXA [5] | P-TAZ S89 [5] | TAZ [5] | β-catenin [5]
103%: HDAC7 [3] | Beclin1 [5] | MHCA [5] | PP1 [5]
98%: HDAC9 [3] | c-KIT [3] | β-catenin [3] | ERBB4 [4] | PUMA [4] | ERBB1 [5] | HDAC2 [5] | HDAC3 [5] | HDAC6 [5] | HDAC10 [5] | P-AMPKα T172 [5] | P-ATM S1980 [5] | P-STAT5 Y694 [5] | YAP [5] | c-MET [5]
61* %: P-B1 [5]
68* %: P-mTOR S2448 [3] | P-mTOR S2481 [3]
113# %: Beclin1 [3] | P-YAP S127 [3]
89%: P-JNK1/2 [3] | P-PDGFRβ [3]
119# %: GRP78 [3]
103# %: GRP78 [4]
93%: HDAC4 [3] | P-PDGFRβ [5]
109%: CHOP [3] | P-PERK T980 [3] | P-eIF2α S51 [3] | Beclin1 [4]
126# %: P-ATG13 S318 [3]
115# %: P-ATG13 S318 [5]
105%: HDAC6 [3] | P-ULK1 S317 [3] | ATG5 [4] | P-eIF2α S51 [4] | P-SRC Y527 [5]
99%: ERBB1 [3] | ERBB4 [3] | ERK2 [3] | HDAC2 [3] | HDAC8 [3] | HDAC10 [3] | IDO1 [3] | P-c-KIT [3] | PD-L1 [3] | PUMA [3] | Total ERK2 [3] | YAP [3] | P-ULK1 S317 [4] | p70 S6K T389 [4] | HDAC1 [5] | HDAC5 [5] | HDAC7 [5] | p70 S6K T389 [5]
107%: P-ULK1 S317 [5]
112%: PP1 [4]
92%: P-STAT3 Y705 [3] | P-c-MET [3] | p70 S6K T389 [3] | P-STAT3 Y705 [4] | P-c-KIT [5]
95%: P-SRC Y416 [3] | P-STAT5 Y694 [4] | P-STAT3 Y705 [5]
90%: P-AKT T308 [5]
87* %: P-mTOR S2481 [5]
63* %: P-ULK1 S757 [3]
100%: ERBB2 [3] | HDAC5 [3] | NOXA [3] | ODC [3] | P-ATM S1980 [3] | P-B3 [3] | P-NFκB S536 [3] | PDGFRβ [3] | TAZ [3] | ERBB1 [4] | NOXA [4] | P-B3 [4] | Total ERK2 [4] | CD95 [5] | ERBB3 [5] | ERBB4 [5] | ERK2 [5] | HDAC9 [5] | HDAC11 [5] | IDO1 [5] | PUMA [5] | Total ERK2 [5] | c-KIT [5]
94%: ERBB2 [5] | P-c-MET [5]
66* %: P-mTOR S2448 [4]
